The nature of this data set: Solubility of Erg-TAD-Py (dissolved concentration by HPLC). Type of data set: physicochemical.

On to `CC(C)[C@@H](C)/C=C/[C@@H](C)C1CCC2C34C=CC5(C[C@@H](O)CC[C@]5(C)C3CC[C@]12C)n1c(=O)n(CCCc2ccc3ccc5cccc6ccc2c3c56)c(=O)n14` (some centres unmarked) [Erg-TAD-Py, Ergosterol-triazolinedione-pyrene], for which the “Concentration at which ethanol dissolves Erg-TAD-Py” value was 0.05 mg/mL. The “Concentration of dissolved Erg-TAD-Py” value (10% DMSO in serum (inactivated fetal calf serum)) worked out at 7.8 µg/mL. Moreover, the “Concentration of dissolved Erg-TAD-Py” value (10% DMSO in water) amounted to 0.7 µg/mL. Moreover, where the note is “30% DMSO in serum (inactivated fetal calf serum)”, the “Concentration of dissolved Erg-TAD-Py” value stood at 8.4 µg/mL. Also, the “Concentration of dissolved Erg-TAD-Py” value (30% DMSO in water) was 6.7 µg/mL. Also, where the note is “50% DMSO in serum (inactivated fetal calf serum)”, the “Concentration of dissolved Erg-TAD-Py” value stood at 6.8 µg/mL. Also, where the note is “50% DMSO in water”, the “Concentration of dissolved Erg-TAD-Py” value amounted to 6 µg/mL. Under “molar equivalent of 0.05 mg/ml”, the “Concentration at which ethanol dissolves Erg-TAD-Py” value is reported as “about 60 uM”.
